Like-named read-outs stand apart in the source and are kept apart here.
Columns and labels:
[1] = molecular target: T1, KRAS-G12C mutant (Homo sapiens, UniProt P01116, G12C); test: TR-FRET assay of SOS1-assisted KRAS GDP/GTP exchange; assay type: biochemical
Experimental: GDP form of 6*His tagged KRAS-G12C was diluted to 40 nM and incubated with 8 nM LanthaScreen™ Elite Terbium-anti-HIS Antibody (Thermo, catalog number PV5863) in reaction buffer containing 20 mM Tris, pH 7.5, 100 mM NaCl, 1 mM DTT, 0.1% Tween20, 0.05% BSA, 2% DMSO, 1 mM MgCl2. After 1 hour-incubation at 4° C., proteins were placed in 384 well plate (PerkinElmer, PROXIPLATE-384 PLUS). Then compounds with different concentrations were added to the proteins. BODIPY labeled GTP (Thermo, catalog number G12411) and SOS-1 (or reaction buffer as control) were then added to reactions at 200 nM and 1 μM to trigger the exchange of GDP to BODIPY-GTP. TR-FRET emission signals were determined at 520 nm and 620 nm on a Envision® Multilabel Plate Reader (PerkinElmer) using a 337 nm laser as light source. All data were analyzed and plotted using Graph Pad Prism software (version 8.0.1). Raw TR-FRET data were converted to percentage of inhibition (relative to DMSO) using the following equations: […]
b) For a given test compound concentration X:
Signal (X)=Emission ratio (SOS-1 & GTP)—Emission ratio (buffer & GTP)
c) Percentage of inhibition at concentration X=[1−Signal(X)/Signal (DMSO)]*100%
The […] values were determined by nonlinear regression of plots of [inhibitor] vs. percentage of inhibition with variable slope. Table 4 summarizes inhibition of SOS1-assisted GDP/GTP exchanging activity of KRAS-G12C mutant with exemplary compounds of the present disclosure.

[2] = test system: phospho-ERK1/2 (Thr202/Tyr204) in MIA PaCa-2 cell line; test: pERK and ERK Western blot analysis, MIA PaCa-2; assay type: cell-based; settings: Homo sapiens
Experimental: MIA PaCa-2 (ATCC), NCI-H358 (ATCC), NCI-H23 (ATCC), SW837 and A549 (ATCC) cells were plated in 24-well plates at 2×10^5cells/well in RPMI growth medium containing 10% FBS and 1× Penicillin Streptomycin. They were then incubated at 37° C. overnight. The following day, the test compound was administered to the cells by using 1000× compound stock solution prepared in DMSO at various concentrations. After administration of the compound, the cells were then incubated at 37° C. for 4 hours. Upon completion, the cells were washed with PBS and protein was collected in Laemmli sample buffer (1×; VWR International). Proteins in cell lysate were separated by SDS-PAGE and transferred to Odyssey nitrocellulose membranes (Licor) with iblot® dry blotting transfer system (ThermoFisher). Nonspecific binding was blocked by incubating membranes with Intercept Blocking Buffer (Licor) for 1 hour at room temperature with gentle shaking. The membranes were then incubated overnight at 4° C. with primary antibodies rabbit anti-phospho p44/42 MAPK (Erk1/2) (1:2,000, Cell Signaling, 4370) and mouse anti-p44/42 MAPK (Erk1/2) (1:1,000, Cell Signaling, 4696) diluted in Intercept Blocking Buffer containing 0.1% Tween 20. After washing 3 times with TBS-T, the membranes were incubated with IRDye® 800CW goat anti-rabbit IgG (1:20,000, Licor) or IRDye® 680CW goat anti-mouse IgG (1:20,000, Licor) for 1 hour. After TBS-T washes, membranes were rinsed in TBS and scanned on Odyssey® CLx Imaging System (Licor). The bands were quantified using Image Studio™ Software (Licor).

[3] = molecular target: T1, KRAS-G12C mutant; test: Gel shift assay (SDS-PAGE) for covalent modification of KRAS G12C; assay type: binding; settings: 0.5 μM compound, 1 μM GDP-bound KRAS G12C, 25° C., 5 minutes, shift indicative of covalent cysteine conjugation
Experimental: 0.5 μM compounds were incubated with 1 μM GDP-bound untagged KRAS (G12C or wild type) proteins at 25° C. for 5 minutes in 40 μl reaction buffer (50 mM Tris, pH 7.5, 100 mM NaCl, 1 mM MgCl2, 1 mM DTT). The reactions were quenched with 10 μI SDS-PAGE sample loading buffer (250 mM Tris-HCl, pH 6.8, 10% SDS, 0.5% bromophenol blue, 50% glycerol and 50 mM DTT) and then analyzed via SDS-PAGE using 4%-20% gradient polyacrylamide gel followed by Coomassie blue stain.
FIG. 1 illustrates mobility change of KRAS-G12C mutant or wild type proteins on SDS-PAGE after 5 minutes of coincubation at 25° C. with exemplary compounds of the present disclosure, indicative of covalent cysteine conjugation.
Table 3 summarizes molecular weight shift of KRAS-G12C mutant on SDS-PAGE after 5 mins of coincubation at 25° C. with exemplary compounds of the present disclosure, indicative of covalent cysteine conjugation.

[4] = test system: MIA PaCa-2 cell line; test: 3D cell growth assay (CellTiter-Glo), MIA PaCa-2; assay type: cell-based; settings: Homo sapiens, MIA PaCa-2, 144 h, 6 days, read-out: 3D growth inhibition GI50
Experimental: MIA PaCa-2 (ATCC), NCI-H358 (ATCC), NCI-H23 (ATCC), SW837 and A549 (ATCC) cells were plated in round bottom 96-well spheroid microplates (Corning, 4520) at 3000 cells/well in 90 ul of RPMI growth medium containing 10% FBS and 1% Penicillin Streptomycin. Cells were incubated at 37° C. overnight. The following day, the test compound was administered to the cells by using 10× compound stock solution prepared in growth medium at various concentrations. After administration of the compound, cells were then incubated at 37° C. for 6 days. Before CellTiter-Glo assay, the plates were equilibrated at room temperature for approximately 10 minutes. 100 ul of CellTiter-Glo® Reagent (Promega, G7573) was added to each well. The plates were then incubated at room temperature for 10 minutes and luminescence was recorded by EnSpire plate reader (PerkinElmer). Table 6 illustrates growth inhibition (G150) by exemplary compounds 1-10 of the present disclosure in a MIA PaCa-2 cell line 6 days after administration in 3D cell culture. A: >0.1 nM and <1 nM; B: >=1 nM and <10 nM; C: >=10 nM and <100 nM; D: >100 nM.

[5] = MIA PaCa-2 cell line, 4 hours after incubation, read-out: 2D pERK IC50
[6] = MIA PaCa-2 cell line, 3D cell culture

SMILES | IC50 [1] [nM] | IC50 [2, 5] [nM] | KRAS-G12C molecular weight shift [3] | GI50 [4, 6] [nM] | IC50 ([2]; MIA PaCa-2, MiaPaCa2, KRAS G12C, 4 hours, read-out: pERK IC50) [nM] | GI50 ([4]; MiaPaCa2, KRAS G12C, 3D) [nM]
C=C(F)C(=O)N1CCN(c2nc(OCC3(CN4CCCC4)CC3)nc3c2CO[C@@H](c2cccc4cccc(Cl)c24)C3)C[C@@H]1CC#N (single isomer, unassigned) [Compound 72] | 11600 | > 100 | No | > 100 |  | 
C=CC(=O)N1CCN(c2nc(OC[C@@H]3C[C@@H](F)CN3C)nc3c2COC(c2cccc4ccccc24)C3)C[C@@H]1CC#N (stereo partly drawn) [Compound 8, 2-((2S)-1-acryloyl-4-(2-(((2S,4R)-4-fluoro-1-methylpyrrolidin-2-yl)methoxy)-7-(naphthalen-1-yl)-7,8-dihydro-5H-pyrano[4,3-d]pyrimidin-4-yl)piperazin-2-yl)acetonitrile] | 238 | 1 to 10 |  | 10 to 100 |  | 
C=CC(=O)N1CCN(c2nc(OC[C@@H]3CCCN3C)nc3c2CO[C@H](c2cccc4cccc(Cl)c24)C3)C[C@@H]1CC#N [Compound 7, 2-((S)-1-acryloyl-4-((S)-7-(8-chloronaphthalen-1-yl)-2-(((S)-1-methylpyrrolidin-2-yl)methoxy)-7,8-dihydro-5H-pyrano[4,3-d]pyrimidin-4-yl)piperazin-2-yl)acetonitrile] | 19 | 0.1 to 1 |  | 1 to 10 |  | 
C=C(F)C(=O)N1CCN(c2nc(OCC34CCCN3CCC4)nc3c2CO[C@H](c2cccc4c2CCCC4)C3)C[C@@H]1CC#N [Compound 69, 2-((S)-1-(2-fluoroacryloyl)-4-((S)-2-((tetrahydro-1H-pyrrolizin-7a(5H)-yl)methoxy)-7-(5,6,7,8-tetrahydronaphthalen-1-yl)-7,8-dihydro-5H-pyrano[4,3-d]pyrimidin-4-yl)piperazin-2-yl)acetonitrile] | 20 | 10 to 100 | Yes | 1 to 10 |  | 
C=CC(=O)N1CCN(c2nc(OC[C@@H]3C[C@H](F)CN3C)nc3c2CO[C@H](c2cccc4ccccc24)C3)C[C@@H]1CC#N [Compound 9, 2-((S)-1-acryloyl-4-((S)-2-(((2S,4S)-4-fluoro-1-methylpyrrolidin-2-yl)methoxy)-7-(naphthalen-1-yl)-7,8-dihydro-5H-pyrano[4,3-d]pyrimidin-4-yl)piperazin-2-yl)acetonitrile] | 1 | 10 to 100 |  | 10 to 100 |  | 
C=C(F)C(=O)N1CCN(c2nc(OC[C@@]34CCCN3C[C@H](F)C4)nc3c2CO[C@@H](c2cccc4cccc(Cl)c24)C3)C[C@@H]1CC#N (single isomer, unassigned) [Compound 63] | 6930 | > 100 | No | 10 to 100 |  | 
C=C(F)C(=O)N1CCN(c2nc(OCC34CCCN3CCC4)nc3c2C(C)OC(c2cccc4cccc(Cl)c24)C3)C[C@@H]1CC#N (stereo partly drawn) [Compound 59, 2-((2S)-4-(7-(8-chloronaphthalen-1-yl)-5-methyl-2-((tetrahydro-1H-pyrrolizin-7a(5H)-yl)methoxy)-7,8-dihydro-5H-pyrano[4,3-d]pyrimidin-4-yl)-1-(2-fluoroacryloyl)piperazin-2-yl)acetonitrile] | 60 | 10 to 100 | Yes | 1 to 10 |  | 
C=C(F)C(=O)N1CCN(c2nc(OC[C@@]34CCCN3C[C@H](F)C4)nc3c2COC(c2cccc4cccc(Cl)c24)C3)C[C@@H]1CC#N (stereo partly drawn) [Compound 62, 2-((2S)-4-(7-(8-chloronaphthalen-1-yl)-2-(((2R,7aS)-2-fluorotetrahydro-1H-pyrrolizin-7a(5H)-yl)methoxy)-7,8-dihydro-5H-pyrano[4,3-d]pyrimidin-4-yl)-1-(2-fluoroacryloyl)piperazin-2-yl)acetonitrile] | 40 | 1 to 10 | Yes | 0.1 to 1 |  | 
C=C(F)C(=O)N1CCN(c2nc(OC[C@@H]3CCCN3C)nc3c2CO[C@H](c2cccc4cccc(Cl)c24)C3)C[C@@H]1CC#N [Compound 18, 2-((S)-4-((S)-7-(8-chloronaphthalen-1-yl)-2-(((S)-1-methylpyrrolidin-2-yl)methoxy)-7,8-dihydro-5H-pyrano[4,3-d]pyrimidin-4-yl)-1-(2-fluoroacryloyl)piperazin-2-yl)acetonitrile] | 78 | 10 to 100 | Yes | 1 to 10 | 21.9 | 7.3
C=CC(=O)N1CCN(c2nc(OC[C@@H]3CCCN3C)nc3c2CO[C@H](c2cccc4ccccc24)C3)C[C@@H]1CC#N [Compound 4, 2-((S)-1-acryloyl-4-((S)-2-(((S)-1-methylpyrrolidin-2-yl)methoxy)-7-(naphthalen-1-yl)-7,8-dihydro-5H-pyrano[4,3-d]pyrimidin-4-yl)piperazin-2-yl)acetonitrile] | 49 | 1 to 10 |  | 1 to 10 |  | 
C=C(F)C(=O)N1CCN(c2nc(OCC34CCCN3CCC4)nc3c2COC(c2cccc4cccc(Cl)c24)C3)C[C@@H]1CC#N (stereo partly drawn) [Compound 53, 2-((2S)-4-(7-(8-chloronaphthalen-1-yl)-2-((tetrahydro-1H-pyrrolizin-7a(5H)-yl)methoxy)-7,8-dihydro-5H-pyrano[4,3-d]pyrimidin-4-yl)-1-(2-fluoroacryloyl)piperazin-2-yl)acetonitrile] | 45 | 1 to 10 | Yes | 1 to 10 |  | 
C=CC(=O)N1CCN(c2nc(OC[C@@H]3CCCN3C)nc3c2COC(c2cccc4ccccc24)C3)C[C@@H]1CC#N (stereo partly drawn) [Compound 2, 2-((2S)-1-acryloyl-4-(2-(((S)-1-methylpyrrolidin-2-yl)methoxy)-7-(naphthalen-1-yl)-7,8-dihydro-5H-pyrano[4,3-d]pyrimidin-4-yl)piperazin-2-yl)acetonitrile] | 77 | 10 to 100 |  | 1 to 10 |  | 
